Experimental findings from publication PMC2637359 (Journal of cardiovascular pharmacology, 2008) are described below.

The target of data set [1] is T1, purified murine sEH recombinant enzyme (Mus musculus, UniProt P34914).
T1 sequence (P34914 1-554): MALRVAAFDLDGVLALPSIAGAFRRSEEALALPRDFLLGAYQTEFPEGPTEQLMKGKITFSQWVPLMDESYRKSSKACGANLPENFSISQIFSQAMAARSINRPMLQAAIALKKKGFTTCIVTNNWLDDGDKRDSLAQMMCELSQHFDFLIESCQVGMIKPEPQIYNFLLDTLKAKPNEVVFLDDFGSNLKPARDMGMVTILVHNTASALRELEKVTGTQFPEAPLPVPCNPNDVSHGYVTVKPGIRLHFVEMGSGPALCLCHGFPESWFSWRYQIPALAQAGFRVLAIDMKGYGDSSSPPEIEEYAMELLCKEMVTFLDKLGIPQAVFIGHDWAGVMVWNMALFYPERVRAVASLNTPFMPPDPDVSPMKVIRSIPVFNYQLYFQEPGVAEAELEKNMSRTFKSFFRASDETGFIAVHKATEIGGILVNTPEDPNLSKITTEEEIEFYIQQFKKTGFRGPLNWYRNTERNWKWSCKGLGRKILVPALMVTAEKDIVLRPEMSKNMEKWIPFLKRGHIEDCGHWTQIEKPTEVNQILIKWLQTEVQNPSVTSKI
The data set can be described thus: sEH activity fluorescent assay. Type of data set: biochemical.

The nature of data set [2]: Single oral dose pharmacokinetic study in mice. The class given is in vivo, mouse. Particulars: AEPU by oral gavage 10 mg/kg, over 24 hours.
Another data set in a line: in vivo. Particulars: ApoE -/-, mouse, plasma, oral, 90 µg/ml in drinking water.
Data set [3] can be described thus: AEPU metabolism in rat liver S9 fraction. The class given is in vitro ADME.
Data set [4] can be described thus: Plasma cholesterol levels in ApoE -/- mice. Type of data set: in vivo, mouse. Particulars: AEPU-treated ApoE -/- mice.

One may read the IC50 as the concentration needed to halve the response being measured. With `CCOCCOCCOCCCCCNC(=O)NC12CC3CC(CC(O)(C3)C1)C2` [Compound 1010, 1-{5-[2-(2-ethoxyethoxy)-ethoxy]-pentyl}-3-(3-hydroxy-adamantan-1-yl)-urea], in data set [1], the IC50 came out at 78 ± 19 nM. In addition, the “fold less potent on the enzyme than AEPU” value in data set [1] (murine sEH) is 28 fold. The “times more abundant in the plasma than AEPU” value in data set [2] was “roughly 5,000 times”. This molecule yielded a concentration at 8 weeks in “in vivo” of 565 nM.

For the molecule `CCOCCOCCOCCCCCNC(=O)NC12CC3CC(CC(C3)C1)C2` [AEPU, 1-adamantan-3-(5-(2-(2-ethylethoxy)ethoxy)pentyl)urea], in data set [3] (rat S9 liver preparation without NADPH), the “Metabolism in the absence of NADPH” value is “no metabolism”. In addition, the “AEPU remaining in the mixture” value in data set [3] (rat liver S9 2.5 mg/mL, NADPH generating system, AEPU 10 µM, 60 min) is “less than 10%”. For the same molecule, the results for the Plasma cholesterol level in data set [4] (control 2.5±0.6 mM) and in data set [4] (control 96.2±23.1 mg/dl) were 2.5 ± 0.9 mM and 96.2 ± 34.6 mg/dL, respectively.

With `O=C(NCCCCCOCCOCCOCCO)NC12CC3CC(CC(C3)C1)C2` [Compound 975, 1-adamantan-1-yl-3-(5-{2-[2-(2-hydroxy-ethoxy)-ethoxy]-ethoxy}-pentyl)-urea], in data set [1], the IC50 was 4.7 ± 0.7 nM.
